System: stem cells isolated from rat cortex, differentiated with CNTF (astrocyte cultures)
Test: Expression profile of CNTF-differentiated rat cortex stem cells treated with VIP
Format: cell-based
Conditions: 5 μM VIP, one day
Description: VIP signature genes. Similar experiments were also performed in which cells were treated with vasoactive intestinal polypeptide (VIP), another drug useful for treating neuropsychiatric disorders. In more detail, stem cells were isolated and propagated from rat cortex. At passage 1, they were treated with 10 ng/ml ciliary neurotrophic factor (CNTF, available from R&D Systems, MN) for four days. 10 ng/ml of basic fibroblast growht factor (bFGF, R&D Systems, MN) was present in the medium on the first day of the differentiation regiment. […] Cells were then treated with 5 μM VIP (Sigma) for one day and harvested for expression profiling.
Signature genes were identified that changed expression when contacted with VIP compared to untreated cells. Each of these genes is listed below in Table 4, along with the measured expression ratio (ρ) and the GenBank Accession number for an exemplary cDNA sequence. The exemplary cDNA sequence for each gene is also provided here in the accompanying sequence listing. Accordingly, an appropriate sequence identifier is also specified in Table 4 for each listed gene.

vasoactive intestinal polypeptide [VIP]
expression ratio σ: Cdk-inhibitor p57Kip2 (vs untreated, U22399 SEQ ID NO: 163): −1.8 | expression ratio σ: Rat EGF like protein (AF112153 SEQ ID NO: 164): 3.8 | expression ratio σ: Rat Interferon inducdible protein 16 (AF164040 SEQ ID NO: 168): 1.8 | expression ratio σ: similar to erythrocyte protein band 7.2 (BC003789 SEQ ID NO: 166): 2.2 | expression ratio σ: rat Dahl salt resistant strain clone etb (U02094 SEQ ID NO: 169): 1.8 | expression ratio σ: Rat tyrosine phosphatase like protein IA-2a (U40682 SEQ ID NO: 167): 2.0 | expression ratio σ: Rat interferon induced mRNA (X61381 SEQ ID NO: 165): 2.3

Source: US20030096264A1, “Multi-parameter high throughput screening assays (MPHTS)” (Psychiatric Genomics, Inc., priority 2001, published 2003)
